“Also recorded” adds a separate entry of the source. Residues, ends and D or L forms follow the SMILES beside them.
Tests used:
[1] = tested on: panel of receptor/ion channels; test: Binding to a panel of receptor/ion channels; settings: data not shown
urotensin II receptor [2] = biological target: T1, urotensin II receptor (Rattus norvegicus, UniProt P49684); test: Increase in the redness or skin temperature of the rat ear after administration of the substance; assay type: in vivo
T1 construct: from tissue; host or cells: whole animal: male Sprague-Dawley rats (Charles River), in vivo
T1 sequence (P49684 1-386): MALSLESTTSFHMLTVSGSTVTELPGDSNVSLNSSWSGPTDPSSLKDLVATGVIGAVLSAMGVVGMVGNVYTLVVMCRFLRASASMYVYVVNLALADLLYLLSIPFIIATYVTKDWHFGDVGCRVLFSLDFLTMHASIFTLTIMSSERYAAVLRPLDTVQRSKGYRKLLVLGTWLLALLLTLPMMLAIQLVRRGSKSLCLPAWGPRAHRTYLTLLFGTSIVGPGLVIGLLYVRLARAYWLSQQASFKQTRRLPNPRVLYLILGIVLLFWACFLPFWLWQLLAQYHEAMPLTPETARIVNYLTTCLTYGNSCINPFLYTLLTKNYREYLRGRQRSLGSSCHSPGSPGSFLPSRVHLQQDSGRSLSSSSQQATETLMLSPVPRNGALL
Method: (§1) The examples described herein used conscious rat as the testing animal, although similar results were also observed from anesthetized rats. Other animals can also be utilized following similar procedures. All procedures involving animals were conducted in an animal facility fully accredited by the American Association for Assessment and Accreditation of Laboratory Animal Care (AAALAC) and in accordance with The Guide for the Care and Use of Laboratory Animals (NIH). Protocols were approved by the Internal Animal Care and Use Committee (IACUC). Results are expressed as mean±s.e. mean. Comparisons between groups were assessed using two-sided Student's t-test. P<0.05 was considered significant.
(§2) Unless otherwise indicated, Rat U-II was obtained from SIGMA (U-7507, St Louis, Mo.). Urantide was purchased from Peptide International (PUT-3639-P1, Louisville, Ky.). Experiments were performed with male, Sprague-Dawley rats (Charles River, Wilmington, Mass.), weighing 250-350 g.
(§3) Rats were acclimated at 18° C. for at least 1 hour before U-II administration. The room temperature was kept at 18° C. throughout ear surface temperature measurements. Rat U-II suspended in sterile saline (0.1 ml) at various concentrations was administered to a conscious rat via unilateral […] (i.p.) injection over a period of 5 second. In the serial dose experiment, serial doses of U-II were administered to a conscious rat via subcutaneous (s.c.) routes. The lateral inner ear surface temperature of the rat was measured using a Raytek High Performance Infra-red Thermometer (Raytek Corp., Santa Cruz, Calif.) at different time points.
(§4) Urantide (PUT-3639-P1, Peptide International) was administered or co-administered with U-II (3 μg/kg) to a rat via subcutaneous administration. The lateral inner ear surface temperature of the rat was measured using a Raytek High Performance Infra-red Thermometer at different time points, wherein the time point of Urantide administration or Urantide and U-II co-administration was marked as 0 minute.
(§5) The nitric oxide syntheses inhibitor, N^g nitro-L-arginine methylester (L-NAME), or prostacyclin inhibitor, indomethacin, was administered to the rat alone or in combination with U-II. L-NAME (N5751, Sigma, 100 mg/kg) suspended in saline was administered to a rat via […] (i.p.) administration 4 hour prior to injecting the rat with the U-II. Indomethacin (17378, Sigma, 30 mg/kg) suspended in carboxymethylcellulose was administered to a rat via p.o. (per os, L—by mouth or orally) 2 hours prior to injecting the rat with the U-II. […] The lateral inner ear surface temperature of the rat was measured using a Raytek High Performance Infra-red Thermometer at different time points, wherein the time point of U-II injection was marked as 0 minutes.

urotensin II receptor [3] = biological target: T1, urotensin II receptor; test: Inhibition of U-II induced increase in the redness or skin temperature of the rat ear; assay type: in vivo; settings: 150 μg/kg co-administered s.c. with U-II 3 μg/kg
Method: as §4
(§6) The nitric oxide syntheses inhibitor, N^g nitro-L-arginine methylester (L-NAME), or prostacyclin inhibitor, indomethacin, was administered to the rat alone or in combination with U-II. L-NAME (N5751, Sigma, 100 mg/kg) suspended in saline was administered to a rat via […] (i.p.) administration 4 hour prior to injecting the rat with the U-II. Indomethacin (17378, Sigma, 30 mg/kg) suspended in carboxymethylcellulose was administered to a rat via p.o. (per os, L—by mouth or orally) 2 hours prior to injecting the rat with the U-II. Dexamethasone (D1756, Sigma, 8 mg/kg) suspended in saline was administered to a rat via i.p. 2 hours prior to injecting the rat with the U-II. After taking a pre-dose or baseline ear surface temperature, 0.1 ml of U-II at various concentrations formulated in sterile normal saline was injection subcutaneously to the mid-scapular region of the rat. The lateral inner ear surface temperature of the rat was measured using a Raytek High Performance Infra-red Thermometer at different time points, wherein the time point of U-II injection was marked as 0 minutes.

UT receptor = biological target: T2, UT receptor (Rattus norvegicus, UniProt P49684); settings: competitive UT receptor antagonist, rat aorta; cited from earlier work
T2 construct: pure UT receptor antagonist in rat aorta vasoconstriction assays; host or cells: rat aorta tissue
T2 sequence (P49684 1-386): T1 sequence (P49684 1-386)

human UT receptor = biological target: T3, human UT receptor (Homo sapiens, UniProt Q9UKP6); settings: CHO cells over-expressing the human UT receptor; cited from earlier work
T3 construct: host or cells: CHO cells over-expressing the human UT receptor
T3 sequence (Q9UKP6 1-389): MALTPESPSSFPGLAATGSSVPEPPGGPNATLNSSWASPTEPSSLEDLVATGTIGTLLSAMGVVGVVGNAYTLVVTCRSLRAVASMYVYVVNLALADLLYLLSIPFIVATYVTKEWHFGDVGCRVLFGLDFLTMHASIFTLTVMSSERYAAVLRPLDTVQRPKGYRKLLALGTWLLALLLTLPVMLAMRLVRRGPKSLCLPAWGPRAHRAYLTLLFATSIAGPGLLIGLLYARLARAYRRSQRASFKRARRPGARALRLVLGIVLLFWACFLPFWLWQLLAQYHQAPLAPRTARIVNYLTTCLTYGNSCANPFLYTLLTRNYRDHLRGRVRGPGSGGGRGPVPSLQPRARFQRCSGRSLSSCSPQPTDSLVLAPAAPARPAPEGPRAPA

urotensin II receptor [4] = test: Increase in the redness or skin temperature of the rat ear after administration of the substance; assay type: in vivo; settings: data not shown
Method: as §1, §2, §3, §4, §5

urotensin II receptor [5] = test: Inhibition of U-II induced increase in the redness or skin temperature of the rat ear; assay type: in vivo
Method: as §4, §6

[6] = rat, nicotinic acid administration; cited from earlier work

CC(C)[C@H](NC(=O)[C@@H]1CSSC(C)(C)[C@H](NC(=O)[C@@H](N)CC(=O)O)C(=O)N[C@@H](Cc2ccccc2)C(=O)N[C@H](Cc2c[nH]c3ccccc23)C(=O)N[C@@H](CCCN)C(=O)N[C@@H](Cc2ccc(O)cc2)C(=O)N1)C(=O)O [urantide] (HELM PEPTIDE1{D.[Pen].F.[dW].[Orn].Y.C.V}$PEPTIDE1,PEPTIDE1,2:R3-7:R3$$$V2.0)
binding activity to proteins within a panel of receptor/ion channels [1]: minimal binding activity
ear flush or ear surface temperature change, substance alone (urotensin II receptor [2]; 150 μg/kg s.c.): caused no ear flush or ear surface temperature changes
effect on U-II induced ear flush or increase of ear temperature (urotensin II receptor [3]): blocked
pA2 (UT receptor): 8.3
activity at human UT receptor (human UT receptor): potent U-II agonist

COC(=O)[C@@H](N)CCCNC(=N)N[N+](=O)[O-] [L-NAME, N^g nitro-L-arginine methylester]
ear flush or ear surface temperature change, substance alone (urotensin II receptor [4]; 100 mg/kg i.p.): caused no ear flush or ear surface temperature change
effect on U-II induced ear flush or increase of ear temperature (urotensin II receptor [5]; 100 mg/kg i.p. 4 hour prior to U-II 3 μg/kg s.c., 100 mg/kg): blocked; also recorded: markedly inhibited

URP: U-II-related peptide, SEQ ID NO: 10, ACFWKYCV, intramolecular disulfide bond (PUT-4408-V, Peptide International)
redness or skin temperature of the rat after administration (urotensin II receptor [2]; URP 100 μg/kg s.c.): induced an increase in skin temperature; also recorded: induced an increase in the redness or skin temperature

COc1ccc2c(c1)c(CC(=O)O)c(C)n2C(=O)c1ccc(Cl)cc1 [indomethacin]
ear flush or ear surface temperature change, substance alone (urotensin II receptor [4]; 30 mg/kg p.o.): caused no ear flush or ear surface temperature change
effect on U-II induced ear flush or increase of ear temperature (urotensin II receptor [5]; 30 mg/kg p.o. 2 hours prior to U-II 3 μg/kg s.c., 30 mg/kg): blocked
effect on U-II induced ear flush or increase of ear temperature (urotensin II receptor [5]; 30 mg/kg p.o. 2 hours prior to U-II 3 μg/kg s.c., listed as Indomethacin, 30 mg/kg): abolished

O=C(O)c1cccnc1 [nicotinic acid]
increase of the ear temperature [6]: less than 1.5 °C

Source: patent publication US7939052B2, “Method of measuring the biological activity of an urotensin II receptor” (priority 2005, dated 2011)
